# Where two headings read alike, the source gives them in different places.
# Assay: Multiple ascending dose (MAD) study: multiple-dose pharmacokinetics
# Format: in vivo, human
# Details: for concentration at 120 h: Day 6, 0 hr post-dose (120 h); for concentration at 120 h / concentration at 132 h / concentration at 144 h / concentration at 156 h / concentration at 168 h / concentration at 192 h / concentration at 288 h / concentration at 300 h / concentration at 312 h / concentration at 324 h: read-out: Pre-dose (trough) plasma concentration, Mean; for concentration at 132 h: Day 6, 12 hr post-dose (132 h); for concentration at 144 h: Day 7, 0 hr post-dose (144 h); for concentration at 156 h: Day 7, 12 hr post-dose (156 h); for concentration at 168 h: Day 8, 0 hr post-dose (168 h); for concentration at 192 h: Day 9, 0 hr post-dose (192 h); for concentration at 288 h: Day 13, 0 hr post-dose (288 h); for concentration at 300 h: Day 13, 12 hr post-dose (300 h); for concentration at 312 h: Day 14, 0 hr post-dose (312 h); for concentration at 324 h: Day 14, 12 hr post-dose (324 h); for concentration at 12 h / concentration at 12 hr: all 12 hr (evening) troughs, read-out: Mean C(12), steady-state trough
# Experimental: A multiple ascending dose (MAD) study of Compound 1 with two additional single-dose cohorts was also completed. […] Secondary objectives included evaluation of the pharmacokinetic (PK) profile and the relationship between Compound 1 PK and pharmacodynamic (PD) characteristics, that is, the inhibition of complement alternative pathway (AP) activity (PK/PD). In the MAD study, multiple-dose pharmacokinetics and pharmacodynamics of Compound 1 were evaluated in four dose groups administered Compound 1 (40, 80, 120 and 200 mg BID) in the fasted state for 14-days (Table 3). Eight subjects received active drug in each group; eight subjects received placebo in the first dose group (40 mg) and two subjects received placebo in each of the other three dose groups. Two additional cohorts were administered Compound 1 at single doses of 240 mg (fasted subjects) and 120 mg (fed subjects) (Table 3). The two single-dose cohorts each comprised six subjects receiving active drug and two subjects receiving placebo. Plasma and serum samples for PK and PD assessment were collected on selected days prior to dosing (at local troughs), and on days 1, 7, and 14 at 0.5-hour to 2-hour intervals for more detailed assessment.
# [1] = human, plasma, oral, 80 mg, 80 mg BID
# [2] = human, plasma, oral, 120 mg, 120 mg BID
# [3] = human, plasma, oral, 200 mg, 200 mg BID
compound,measurement,setting,value
"CC(=O)c1nn(CC(=O)N2[C@H](C(=O)Nc3nc(Br)ccc3C)C[C@@]3(C)C[C@@H]23)c2ccc(-c3cnc(C)nc3)cc12 [Compound 1, (1R,3S,5R)-2-(2-(3-acetyl-5-(2-methylpyrimidin-5-yl)-1H-indazol-1-yl)acetyl)-N-(6-bromo-3-methylpyridin-2-yl)-5-methyl-2-azabicyclo[3.1.0]hexane-3-carboxamide]","Mean pre-dose concentrations at steady-state, range",40 mg BID,15.6 to 23.5 ng/mL
same,"Mean pre-dose concentrations at steady-state, range",80 mg BID,45.9 to 83.7 ng/mL
same,"Mean pre-dose concentrations at steady-state, range",120 mg BID,80.6 to 153 ng/mL
same,"Mean pre-dose concentrations at steady-state, range",200 mg BID,247 to 392 ng/mL
same,concentration at 120 h,"human, plasma, oral, 40 mg BID",27.8 ng/mL
same,concentration at 132 h,"human, plasma, oral, 40 mg BID",17.9 ng/mL
same,concentration at 144 h,"human, plasma, oral, 40 mg BID",24.3 ng/mL
same,concentration at 156 h,"human, plasma, oral, 40 mg BID",15.7 ng/mL
same,concentration at 168 h,"human, plasma, oral, 40 mg BID",27.8 ng/mL
same,concentration at 192 h,"human, plasma, oral, 40 mg BID",26.9 ng/mL
same,concentration at 288 h,"human, plasma, oral, 40 mg BID",23.5 ng/mL
same,concentration at 300 h,"human, plasma, oral, 40 mg BID",15.3 ng/mL
same,concentration at 312 h,"human, plasma, oral, 40 mg BID",25.2 ng/mL
same,concentration at 324 h,"human, plasma, oral, 40 mg BID",16.2 ng/mL
same,concentration at 12 h,"human, plasma, oral, 40 mg BID",15.6 ng/mL
same,Tmax,"human, plasma, oral, 40 mg, 40 mg BID × 14 Days, Day 1",1.56 h
same,AUC(0-t),"human, plasma, oral, 40 mg, 40 mg BID × 14 Days, Day 1, read-out: AUC(0-12), Mean",392 ng·h/mL
same,Cmax,"human, plasma, oral, 40 mg, 40 mg BID × 14 Days, Day 1, read-out: Cmax, Mean",107 ng/mL
same,Tmax,"human, plasma, oral, 40 mg, 40 mg BID × 14 Days, Day 7",1.8 h
same,AUC(0-t),"human, plasma, oral, 40 mg, 40 mg BID × 14 Days, Day 7, read-out: AUC(0-12), Mean",741 ng·h/mL
same,AUC(0-t),"human, plasma, oral, 40 mg, 40 mg BID × 14 Days, Day 7, read-out: AUC(0-24), Mean",1480 ng·h/mL
same,Cmax,"human, plasma, oral, 40 mg, 40 mg BID × 14 Days, Day 7, read-out: Cmax, Mean",169 ng/mL
same,Tmax,"human, plasma, oral, 40 mg, 40 mg BID × 14 Days, Day 14",1.58 h
same,AUC(0-t),"human, plasma, oral, 40 mg, 40 mg BID × 14 Days, Day 14, read-out: AUC(0-12), Mean",732 ng·h/mL
same,AUC(0-t),"human, plasma, oral, 40 mg, 40 mg BID × 14 Days, Day 14, read-out: AUC(0-24), Mean",1460 ng·h/mL
same,Cmax,"human, plasma, oral, 40 mg, 40 mg BID × 14 Days, Day 14, read-out: Cmax, Mean",156 ng/mL
same,concentration at 156 h,"human, plasma, oral, 80 mg BID",43.7 ng/mL
same,concentration at 168 h,"human, plasma, oral, 80 mg BID",109 ng/mL
same,concentration at 192 h,"human, plasma, oral, 80 mg BID",102 ng/mL
same,concentration at 288 h,"human, plasma, oral, 80 mg BID",63.3 ng/mL
same,concentration at 300 h,"human, plasma, oral, 80 mg BID",45.2 ng/mL
same,concentration at 312 h,"human, plasma, oral, 80 mg BID",85 ng/mL
same,Tmax,"human, plasma, oral, 80 mg, 80 mg BID × 14 Days, Day 1",1.79 h
same,AUC(0-t),"human, plasma, oral, 80 mg, 80 mg BID × 14 Days, Day 1, read-out: AUC(0-12), Mean",856 ng·h/mL
same,Cmax,"human, plasma, oral, 80 mg, 80 mg BID × 14 Days, Day 1, read-out: Cmax, Mean",207 ng/mL
same,Tmax,"human, plasma, oral, 80 mg, 80 mg BID × 14 Days, Day 7",2 h
same,AUC(0-t),"human, plasma, oral, 80 mg, 80 mg BID × 14 Days, Day 7, read-out: AUC(0-12), Mean",1990 ng·h/mL
same,AUC(0-t),"human, plasma, oral, 80 mg, 80 mg BID × 14 Days, Day 7, read-out: AUC(0-24), Mean",3990 ng·h/mL
same,Cmax,"human, plasma, oral, 80 mg, 80 mg BID × 14 Days, Day 7, read-out: Cmax, Mean",472 ng/mL
same,Tmax,"human, plasma, oral, 80 mg, 80 mg BID × 14 Days, Day 14",2.14 h
same,AUC(0-t),"human, plasma, oral, 80 mg, 80 mg BID × 14 Days, Day 14, read-out: AUC(0-12), Mean",1980 ng·h/mL
same,AUC(0-t),"human, plasma, oral, 80 mg, 80 mg BID × 14 Days, Day 14, read-out: AUC(0-24), Mean",3970 ng·h/mL
same,Cmax,"human, plasma, oral, 80 mg, 80 mg BID × 14 Days, Day 14, read-out: Cmax, Mean",453 ng/mL
same,concentration at 120 h,[1],73.8 ng/mL
same,concentration at 132 h,[1],52.1 ng/mL
same,concentration at 144 h,[1],69.1 ng/mL
same,concentration at 324 h,[1],42.5 ng/mL
same,concentration at 12 hr,[1],45.9 ng/mL
same,concentration at 12 h,"human, plasma, oral, 120 mg BID",~80 ng/mL
same,Tmax,"human, plasma, oral, 120 mg, 120 mg BID × 14 Days, Day 1",2 h
same,AUC(0-t),"human, plasma, oral, 120 mg, 120 mg BID × 14 Days, Day 1, read-out: AUC(0-12), Mean",1200 ng·h/mL
same,Cmax,"human, plasma, oral, 120 mg, 120 mg BID × 14 Days, Day 1, read-out: Cmax, Mean",353 ng/mL
same,Tmax,"human, plasma, oral, 120 mg, 120 mg BID × 14 Days, Day 7",1.75 h
same,AUC(0-t),"human, plasma, oral, 120 mg, 120 mg BID × 14 Days, Day 7, read-out: AUC(0-12), Mean",3880 ng·h/mL
same,AUC(0-t),"human, plasma, oral, 120 mg, 120 mg BID × 14 Days, Day 7, read-out: AUC(0-24), Mean",7750 ng·h/mL
same,Cmax,"human, plasma, oral, 120 mg, 120 mg BID × 14 Days, Day 7, read-out: Cmax, Mean",885 ng/mL
same,Tmax,"human, plasma, oral, 120 mg, 120 mg BID × 14 Days, Day 14",2.5 h
same,AUC(0-t),"human, plasma, oral, 120 mg, 120 mg BID × 14 Days, Day 14, read-out: AUC(0-12), Mean",3990 ng·h/mL
same,AUC(0-t),"human, plasma, oral, 120 mg, 120 mg BID × 14 Days, Day 14, read-out: AUC(0-24), Mean",7990 ng·h/mL
same,Cmax,"human, plasma, oral, 120 mg, 120 mg BID × 14 Days, Day 14, read-out: Cmax, Mean",887 ng/mL
same,concentration at 120 h,[2],165 ng/mL
same,concentration at 132 h,[2],90.6 ng/mL
same,concentration at 144 h,[2],125 ng/mL
same,concentration at 156 h,[2],67.2 ng/mL
same,concentration at 168 h,[2],164 ng/mL
same,concentration at 192 h,[2],156 ng/mL
same,concentration at 288 h,[2],136 ng/mL
same,concentration at 300 h,[2],88 ng/mL
same,concentration at 312 h,[2],173 ng/mL
same,concentration at 324 h,[2],76.6 ng/mL
same,Cmax,"human, plasma, oral, 120 mg, 120 mg BID, read-out: Cmax",< 1000 ng/mL
same,Tmax,"human, plasma, oral, 200 mg, 200 mg BID × 14 Days, Day 1",1.63 h
same,AUC(0-t),"human, plasma, oral, 200 mg, 200 mg BID × 14 Days, Day 1, read-out: AUC(0-12), Mean",1820 ng·h/mL
same,Cmax,"human, plasma, oral, 200 mg, 200 mg BID × 14 Days, Day 1, read-out: Cmax, Mean",440 ng/mL
same,Tmax,"human, plasma, oral, 200 mg, 200 mg BID × 14 Days, Day 7",2.06 h
same,AUC(0-t),"human, plasma, oral, 200 mg, 200 mg BID × 14 Days, Day 7, read-out: AUC(0-12), Mean",9350 ng·h/mL
same,AUC(0-t),"human, plasma, oral, 200 mg, 200 mg BID × 14 Days, Day 7, read-out: AUC(0-24), Mean",18700 ng·h/mL
same,Cmax,"human, plasma, oral, 200 mg, 200 mg BID × 14 Days, Day 7, read-out: Cmax, Mean",1870 ng/mL
same,Tmax,"human, plasma, oral, 200 mg, 200 mg BID × 14 Days, Day 14",1.81 h
same,AUC(0-t),"human, plasma, oral, 200 mg, 200 mg BID × 14 Days, Day 14, read-out: AUC(0-12), Mean",8240 ng·h/mL
same,AUC(0-t),"human, plasma, oral, 200 mg, 200 mg BID × 14 Days, Day 14, read-out: AUC(0-24), Mean",16500 ng·h/mL
same,Cmax,"human, plasma, oral, 200 mg, 200 mg BID × 14 Days, Day 14, read-out: Cmax, Mean",1630 ng/mL
same,concentration at 120 h,[3],431 ng/mL
same,concentration at 132 h,[3],241 ng/mL
same,concentration at 144 h,[3],385 ng/mL
same,concentration at 156 h,[3],241 ng/mL
same,concentration at 168 h,[3],381 ng/mL
same,concentration at 192 h,[3],377 ng/mL
same,concentration at 288 h,[3],376 ng/mL
same,concentration at 300 h,[3],272 ng/mL
same,concentration at 312 h,[3],415 ng/mL
same,concentration at 324 h,[3],235 ng/mL
same,concentration at 12 hr,[3],247 ng/mL
same,Cmax,"human, plasma, oral, 200 mg, 200 mg BID, read-out: Cmax",< 2000 ng/mL
same,C0 at 0 h,"human, plasma, oral, 40 mg BID, all 0 hr (morning) troughs, read-out: Mean C(0), steady-state trough",23.4 ng/mL
same,C0 at 0 hr,"human, plasma, oral, 80 mg BID, all 0 hr (morning) troughs, read-out: Mean C(0), steady-state trough",83.7 ng/mL
same,C0 at 0 hr,"human, plasma, oral, 120 mg BID, all 0 hr (morning) troughs, read-out: Mean C(0), steady-state trough",153 ng/mL
same,C0 at 0 hr,"human, plasma, oral, 200 mg BID, all 0 hr (morning) troughs, read-out: Mean C(0), steady-state trough",392 ng/mL
same,diurnal metabolic pattern,"humans, BID dosing, C(0) morning vs C(12) evening",exhibits a diurnal metabolic pattern
